{
  "source": "patent US12578273B2",
  "about": "“Ph-reversible leuco-BODIPY probe for in situ visualization of extracellular vesicles and their secretion from living cells” (The Chinese University of Hong Kong, priority 2021, dated 2026)",
  "type_in_all_cases": "cell-based",
  "key": {"[1]": {"system": "HeLa cells", "assay": "Pathway for the cellular entry of the probe (NaN3 or 4 °C block of energy-dependent endocytosis)", "settings": "5 μM probe, 30 min", "protocol": "(§1) FIGS. 29A-29F Pathway for the cellular uptake of the probe. The cells were either (FIGS. 29A-29C) treated with sodium azide (NaN3) or (FIGS. 29D-29F) incubated at 4° C. for blocking energy-dependent endocytosis (red bars). Cells under normal cell culture conditions (37° C. without NaN3) serve as the positive control (green bars). Statistical analysis was conducted by two-tailed Student's t test. Not significant (ns) P>0.05. Error bar indicates standard deviation.\n(§2) Cells were firstly cultured in a 96-well plate and allowed to reach about 90% confluence. In our first experiment, the cells were either pretreated in 0.1 mL of complete DMEM containing 5 mM NaN3 (Sigma) at 37° C. for 3 h. After that, the medium was replaced by 0.1 mL of complete medium containing 5 mM NaN3 and 5 μM leuco-BODIPY (in 0.5% DMSO) at 37° C. for another 30 min. In our second experiment, the cells were preincubated with 0.1 mL of complete DMEM inside a 4° C. refrigerator for 30 min. After that, the medium was replaced by 0.1 mL of complete medium containing 5 μM leuco-BODIPY (in 0.5% DMSO) for another 30 min and incubated at 4° C. As the […], cells were incubated with 0.1 mL of complete medium containing 5 μM leuco-BODIPY (in 0.5% DMSO) at 37° C. for 30 min. At the end of both experiments, the fluorescence of the treated cells was measured by a microplate reader (ThermoFisher Fluoroskan Ascent, Waltham, MA) at an excitation wavelength of 584 nm and emission wavelength of 612 nm.\n(§3) We studied the mechanism for the cellular uptake of our probe by a pharmacological approach."}, "[2]": {"system": "A549 cells", "assay": "Pathway for the cellular entry of the probe (NaN3 or 4 °C block of energy-dependent endocytosis)", "settings": "5 μM probe, 30 min", "protocol": "as §1, §2, §3"}, "[3]": {"system": "HEK293 cells", "assay": "Pathway for the cellular entry of the probe (NaN3 or 4 °C block of energy-dependent endocytosis)", "settings": "5 μM probe, 30 min", "protocol": "as §1, §2, §3"}, "[4]": {"system": "HeLa cells", "assay": "Cytotoxicity of the probe (alamarBlue cell viability)", "settings": "2 μM, 0.1% DMSO, 12 h", "protocol": "(§4) FIGS. 28A-28C Cytotoxicity of the probe. Pre-seeded in 96-well plates, HEK293, HeLa, and A549 cells were incubated in complete DMEM containing different concentrations of leuco-BODIPY [dissolved in dimethyl sulfoxide (DMSO)] for 12 h. The alamarBlue reagent (Invitrogen) was used to test cell viability by measuring the optical absorbance at 570 nm and 600 nm by a Multiskan GO UV-absorbance microplate reader. Reported data represent mean±SD from three independent experiments.\nas §3"}, "[5]": {"system": "A549 cells", "assay": "Cytotoxicity of the probe (alamarBlue cell viability)", "settings": "2 μM, 0.1% DMSO, 12 h", "protocol": "as §4, §3"}, "[6]": {"system": "HEK293 cells", "assay": "Cytotoxicity of the probe (alamarBlue cell viability)", "settings": "2 μM, 0.1% DMSO, 12 h", "protocol": "as §4, §3"}, "[7]": {"system": "HeLa cells", "assay": "Effect of probe staining on the secretion of EVs (nanoparticle tracking analysis)", "settings": "5 μM leuco-BODIPY, 3 h, NTA", "protocol": "FIGS. 32A-32B Effect of probe staining on the secretion of EVs. HeLa cells were incubated with (FIG. 32A) complete DMEM or (FIG. 32B) DMEM containing 5 μM leuco-BODIPY for 3 h. After that, the EV sample was isolated from the cells for nanoparticle tracking analysis (NTA).\nEV samples were diluted with filtered PBS (0.2 μm) to obtain an EV concentration of 10^8-10^9 particles/mL. For each sample, four 1-min videos were recorded when introduced about 1 mL of the conditioned medium to the NTA system (Malvern NanoSight NS500, Malvern, UK). The temperature was kept at about 18° C. Images in each video were analyzed with NTA 3.1 Build 3.1.45 software (Malvern). Auto settings were used for blur size and maximum jump distance. 2000 frames were examined per sample. […]\n(§5) Moreover, we incubated the three cell types with our probe for 30 min, isolated the EVs secreted to the culture medium, centrifuged the collected medium to remove any dye-stained cell fragments, and confirmed the detection of fluorescence in the isolated EVs (Table 1). By contrast, for the EVs isolated from the same cell types under the same culture conditions but without treatment by our probe, the fluorescence detected was at the background level of blank culture medium."}, "[8]": {"system": "EVs secreted by A549 cells", "assay": "Estimation of the fluorescence signal per EV", "settings": "5 μM leuco-BODIPY, 30 min, excitation 584 nm, emission 612 nm, net fluorescence divided by number of EVs (NTA)", "protocol": "Cells were pre-seeded in a 96-well plate in complete DMEM without phenol red. During the experiment, 200 μL of either fresh complete DMEM without phenol red or 5 μM leuco-BODIPY formulated in fresh complete DMEM without phenol red was added to the cells. After 30 min, the medium was collected and centrifuged for 10 min at 200×g to remove any dye-stained cell debris. The fluorescence signal in the medium was measured by a fluorescent plate reader (ThermoFisher Fluoroskan Ascent) at an excitation wavelength of 584 nm and emission wavelength of 612 nm. The net fluorescence in the dye-treated EV sample was determined by subtracting the background fluorescence of the untreated EV sample from the fluorescence of the dye-treated EV sample. Complete DMEM without phenol red was also used as a control to determine the background fluorescence of the blank culture medium. After the microplate reader experiment, each EV sample was made up to a total of 1 mL by adding DMEM without phenol red, followed by injection into a Malvern Nanosight NS500 instrument for measuring the total number of EVs in the sample. […] The fluorescence signal per EV was estimated by dividing (1) the net fluorescence (with background subtraction) of the EV sample as measured by the microplate reader by (2) the number of EVs in the sample as measured by NTA.\nas §5\nTable 1: Estimate of the number of signals per EV. The fluorescence signal per EV is expressed in arbitrary units (a.u.), a relative value that highly depends on pH, dye concentration, and laser power. […]"}, "[9]": {"settings": "pretreatment with sodium azide (5 mM)"}},
  "data": [
    {"compound": "CCOC(=O)C(=Cc1ccc2n1[B-](F)(F)n1c(C=C(C(=O)OCC)C(=O)OCC)ccc1C2(OC)c1ccncc1)C(=O)OCC", "note": "[leuco-BODIPY]", "values": [
      {"measurement": "cellular uptake of the probe", "setting": "[1]; preincubation at 4 °C", "value": "did not significantly affect"},
      {"measurement": "cellular uptake of the probe", "setting": "[1]; [9]", "value": "did not significantly affect"},
      {"measurement": "cellular uptake of the probe", "setting": "[2]; preincubation at 4 °C", "value": "did not significantly affect"},
      {"measurement": "cellular uptake of the probe", "setting": "[2]; [9]", "value": "did not significantly affect"},
      {"measurement": "cellular uptake of the probe", "setting": "[3]; preincubation at 4 °C", "value": "did not significantly affect"},
      {"measurement": "cellular uptake of the probe", "setting": "[3]; [9]", "value": "did not significantly affect"},
      {"measurement": "cell viability", "setting": "[4]", "value": "did not severely reduce cell viability"},
      {"measurement": "cell viability", "setting": "[5]", "value": "did not severely reduce cell viability"},
      {"measurement": "cell viability", "setting": "[6]", "value": "did not severely reduce cell viability"},
      {"measurement": "effect on EV secretion (size distribution of EVs from dye-stained vs unstained cells)", "setting": "[7]", "value": "limited effect"},
      {"measurement": "Mean fluorescence signal per EV", "setting": "[8]", "value": "4.17 × 10^−7 a.u."}
    ]}
  ]
}
